From patent US20160075651A1, “GLYCOLIPID INHIBITION USING IMINOSUGARS” (UNITHER VIROLOGY, LLC, priority 2013, published 2016)
Residue numbers refer to the chain shown, from its start. Read-outs that look alike come from different tables or passages of the source.

Legend:
ER alpha glucosidase = experiment: Free oligosaccharide analysis (measure of ER alpha glucosidase inhibition); format: cell-based; conditions: FIG. 13, compared with UV-4
Procedure: Free glucosyl oligosaccharides were measured according to Alonzi et al. Biochem. J. (2008) 409, 571-580.

[1] = tested on: glucosylceramide and lactosylceramide in Huh7.5 cells; experiment: Cellular glucosylceramide and lactosylceramide measurement in Huh7.5 hepatoma cells (lipidomics); format: cell-based; conditions: human hepatoma cells (Huh7.5), 10 μM, 4 days
Procedure: Glycosphingolipids (including GlcCer and LacCer) were measured according to Wolf, C. and Quinn, P. J. Progress in lipid research (2008) 47, 15-36. Briefly, chloroform-methanol extracts of cellular lipids were subjected to HPLC to isolate the glycosphingolipid species from other cellular lipids, then subjected to two-dimentional mass-spectromertry with internal standards in order to quantify particular glycosphingolipid species.
Huh7.5 cells were grown in DMEM supplemented with 100 U/ml penicillin, […] streptomycin, 2 mM L-glutamine, 1×MEM, and 10% FBS. All incubations were at 37° C./5% CO2. The effect of iminosugar treatment on cellular lipid profiles was determined in cells after incubation for 4 days in the presence or absence of iminosugars, at which point they were harvested using trypsin/EDTA, washed 3 times in cold PBS, counted using trypan blue staining, and final cell pellets were resuspended in methanol:acetone (vol 1:1) prior to lipid profiling, A small volume of each sample was used for total protein estimation using the Bradford protein assay (Bio-Rad).
The methodology has been described in detail previously (Wolf, C., Quinn, P. J., Lipidomics: Practical aspects and applications. Progress in Lipid Research 2008, 47, 15-36: Quinn, P. J., Rainteau, D., Wolf, C., Lipidomics of the red cell in diagnosis of human disorders. Methods Mol Biol 2009, 579, 127-159). […]

[2] = molecular target: T1, β-glucocerebrosidase (N370S mutant) (Homo sapiens, UniProt P04062, N409S); experiment: β-Glucocerebrosidase activation (chaperone) assay in Gaucher N370S cells; format: cell-based; conditions: 3 days, versus untreated cells
T1 construct: mutant Gaucher lymphoblasts with the most common N370S mutation; endogenous in cells; host or cells: Gaucher (N370S) lymphoblasts
T1 sequence (P04062 40-536 N409S): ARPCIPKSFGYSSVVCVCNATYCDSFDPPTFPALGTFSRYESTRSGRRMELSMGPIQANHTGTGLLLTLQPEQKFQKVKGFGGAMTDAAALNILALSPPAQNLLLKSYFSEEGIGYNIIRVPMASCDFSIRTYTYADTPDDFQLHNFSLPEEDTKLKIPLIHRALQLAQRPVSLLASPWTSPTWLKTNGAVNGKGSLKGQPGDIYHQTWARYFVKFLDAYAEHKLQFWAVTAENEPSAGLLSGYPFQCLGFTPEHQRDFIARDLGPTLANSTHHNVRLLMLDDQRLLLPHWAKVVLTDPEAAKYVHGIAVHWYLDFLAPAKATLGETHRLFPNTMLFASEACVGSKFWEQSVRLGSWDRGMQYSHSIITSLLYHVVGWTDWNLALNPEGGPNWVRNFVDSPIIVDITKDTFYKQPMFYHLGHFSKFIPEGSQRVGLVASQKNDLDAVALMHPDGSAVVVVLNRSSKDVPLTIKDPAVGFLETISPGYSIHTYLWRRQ

[3] = molecular target: T2, ceramide glucosyltransferase (Homo sapiens, UniProt Q16739); experiment: Ceramide glucosyltransferase cellular assay (GM3 reduction in HL60 cells, NP-HPLC); format: cell-based; conditions: for IC50: 3 days, GM3 peak area
T2 construct: endogenous in cells; host or cells: HL60 cells
T2 sequence (Q16739 1-394): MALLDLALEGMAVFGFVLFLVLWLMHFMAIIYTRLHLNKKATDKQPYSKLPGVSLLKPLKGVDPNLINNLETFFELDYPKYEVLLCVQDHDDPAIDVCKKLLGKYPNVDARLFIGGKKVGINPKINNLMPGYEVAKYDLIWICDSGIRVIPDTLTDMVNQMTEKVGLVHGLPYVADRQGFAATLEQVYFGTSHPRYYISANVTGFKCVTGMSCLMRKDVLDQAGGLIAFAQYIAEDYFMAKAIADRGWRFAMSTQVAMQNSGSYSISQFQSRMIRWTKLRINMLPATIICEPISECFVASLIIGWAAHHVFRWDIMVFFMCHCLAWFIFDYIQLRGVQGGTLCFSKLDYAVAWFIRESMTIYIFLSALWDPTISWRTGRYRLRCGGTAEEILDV

[4] = molecular target: T3, human placental β-glucocerebrosidase (Homo sapiens, UniProt P04062); experiment: β-Glucocerebrosidase inhibition assay (4-methylumbelliferyl-β-glucoside, fluorogenic); format: biochemical
T3 construct: Human placental β-glucocerebrosidase was isolated and purified; from tissue; host or cells: human placenta
T3 sequence (P04062 40-536): T1 sequence (P04062 40-536 N409S) with S370N

| Activation fold at 10 μM ([2]; 10 μM) [fold] | IC50 [3] [nM] | potency in cells relative to NB-DNJ ([3]; GM3 reduction, versus NB-DNJ (Zavesca)) | IC50 ([4]; human placental enzyme, 0.5 mM 4-MU-β-glucoside, pH 5.2) [nM] | Activation fold (@ 1 μM) ([2]; 1 μM) | IC50 [4] [nM] | Structure (SMILES) | ER glucosidase inhibitory activity (free oligosaccharide analysis) (ER alpha glucosidase) | inhibition of the cellular glucosylceramide / lactosylceramide pathway [1] |
| --- | --- | --- | --- | --- | --- | --- | --- | --- |
|  |  |  |  |  |  | Cc1c(C)c2c(c(C)c1OCCCCCN1C[C@H](O)[C@@H](O)[C@H](O)[C@H]1CO)CC[C@@](C)(CCC[C@H](C)CCC[C@H](C)CCCC(C)C)O2 [Top-DNJ, tocopheryl-pentyl deoxynojirimycin] | virtually devoid of ER glucosidase inhibitory activity | near-complete inhibition |
| 2.1 | 190 ± 21 | approximately 100 times | 1850 ± 40 |  |  | COCCCCCCCCCN1C[C@H](O)[C@@H](O)[C@H](O)[C@H]1CO [UV4, N-(9-methoxynonyl)deoxynojirimycin] |  |  |
|  | 49 ± 5 |  |  | 1.7 (@ 1 μM) fold | 150 ± 30 | [N-]=[N+]=Nc1ccc(NCCCCCCN2C[C@H](O)[C@@H](O)[C@H](O)[C@H]2CO)c([N+](=O)[O-])c1 [UV5, N—(N′-{4′-azido-2′-nitrophenyl)-6-aminohexyl)-deoxynojirimycin] |  |  |
